Laboratory results from the NIST ThermoML archive (doi:10.1021/je800357c).
Numbers after ± are expanded uncertainties.

Experiment: mn = molality of the nth substance listed, in mol/kg
Details: 101 kPa, Liquid

Compound: O=C(O)/C=C\C(=O)O [cis-1,4-butenedioic acid] + O
- mass density (288.15 K, m1 = 0.09831): 1003.24 ± 0.43 kg/m3
- mass density (288.15 K, m1 = 0.4902): 1018.5 ± 0.44 kg/m3
- mass density (288.15 K, m1 = 0.979): 1035.99 ± 0.45 kg/m3
- mass density (293.15 K, m1 = 0.09831): 1002.29 ± 0.43 kg/m3
- mass density (293.15 K, m1 = 0.4902): 1017.26 ± 0.44 kg/m3
- mass density (293.15 K, m1 = 0.979): 1034.47 ± 0.45 kg/m3
- mass density (298.15 K, m1 = 0.09831): 1001.04 ± 0.43 kg/m3
- mass density (298.15 K, m1 = 0.4902): 1015.79 ± 0.44 kg/m3
- mass density (298.15 K, m1 = 0.979): 1032.74 ± 0.45 kg/m3
- mass density (303.15 K, m1 = 0.09831): 999.59 ± 0.43 kg/m3
- mass density (303.15 K, m1 = 0.4902): 1014.1 ± 0.44 kg/m3
- mass density (303.15 K, m1 = 0.979): 1030.81 ± 0.45 kg/m3
- mass density (308.15 K, m1 = 0.09831): 997.91 ± 0.43 kg/m3
- mass density (308.15 K, m1 = 0.4902): 1012.25 ± 0.44 kg/m3
- mass density (308.15 K, m1 = 0.979): 1028.74 ± 0.45 kg/m3
- mass density (313.15 K, m1 = 0.09831): 996.07 ± 0.43 kg/m3
- mass density (313.15 K, m1 = 0.4902): 1010.18 ± 0.44 kg/m3
- mass density (313.15 K, m1 = 0.979): 1026.46 ± 0.45 kg/m3
- mass density (318.15 K, m1 = 0.09831): 994.03 ± 0.43 kg/m3
- mass density (318.15 K, m1 = 0.4902): 1007.98 ± 0.44 kg/m3
- mass density (318.15 K, m1 = 0.979): 1024.06 ± 0.44 kg/m3
- mass density (323.15 K, m1 = 0.09831): 991.81 ± 0.44 kg/m3
- mass density (323.15 K, m1 = 0.4902): 1005.58 ± 0.43 kg/m3
- mass density (323.15 K, m1 = 0.979): 1021.47 ± 0.44 kg/m3
- mass density (328.15 K, m1 = 0.09831): 989.41 ± 0.44 kg/m3
- mass density (328.15 K, m1 = 0.4902): 1003.01 ± 0.43 kg/m3
- mass density (328.15 K, m1 = 0.979): 1018.75 ± 0.44 kg/m3
- mass density (333.15 K, m1 = 0.09831): 986.88 ± 0.44 kg/m3
- mass density (333.15 K, m1 = 0.4902): 1000.36 ± 0.43 kg/m3
- mass density (333.15 K, m1 = 0.979): 1015.92 ± 0.44 kg/m3
